One experiment deals with Histone H3 phosphorylation at Thr3. Put plainly: Histone H3 Thr3 phosphorylation in arrested mitotic cells, immunoblotting. The format is cell-based. Conditions: paclitaxel- or nocodazole-arrested mitotic cells, 30 min, with MG132. How it is done: Cell lysates were prepared for immunoblotting. […] HeLa cells were treated with DMSO or THZ-4-63-1 (5 μM) for 4 h followed by 1 h treatment of MG132 (10 μM). Cells were fixed and stained with anti-H3T3ph and anti-CREST. […] Cells were treated as in FIG. 2, Panel D, and additionally treated with MG132 (10 μM) for 1 h before fixation. The histogram indicates the quantification of H3S10ph signal. […] MCF-10A cells stably expressing empty vector (EV) or MELK were fixed for immunostaining. Images were captured with identical exposure time. H3T3ph intensity was quantified by the use of ImageJ. […] Recombinant MELK protein (kinase domain) was incubated with recombinant Histone H3 for 30 min at 30° C. Samples were subjected to immunoblotting using the indicated antibodies. […] Cells stably expressing GFP-MELK were fixed by formaldehyde and stained with anti-H3S10ph. […] Asynchronized (Async.) or nocodazole-arrested mitotic cells were subjected to fractionation, with sample prepared for immunoblotting. Panels H and I are images showing that MELK inhibition impairs the localization of chromosome passenger complex (CPC), indicated by the immunofluorescence detecting Survivin (G) and Aurora B (H). In addition to the presence of doxycyclin or THZ-4-63-1, cells were treated with nocodazole (0.33 μM) and MG132 (10 μM) for 3 h before fixation.
Cell lysates were prepared for immunoblotting. […]
T1 sequence (Q14680 whole entry): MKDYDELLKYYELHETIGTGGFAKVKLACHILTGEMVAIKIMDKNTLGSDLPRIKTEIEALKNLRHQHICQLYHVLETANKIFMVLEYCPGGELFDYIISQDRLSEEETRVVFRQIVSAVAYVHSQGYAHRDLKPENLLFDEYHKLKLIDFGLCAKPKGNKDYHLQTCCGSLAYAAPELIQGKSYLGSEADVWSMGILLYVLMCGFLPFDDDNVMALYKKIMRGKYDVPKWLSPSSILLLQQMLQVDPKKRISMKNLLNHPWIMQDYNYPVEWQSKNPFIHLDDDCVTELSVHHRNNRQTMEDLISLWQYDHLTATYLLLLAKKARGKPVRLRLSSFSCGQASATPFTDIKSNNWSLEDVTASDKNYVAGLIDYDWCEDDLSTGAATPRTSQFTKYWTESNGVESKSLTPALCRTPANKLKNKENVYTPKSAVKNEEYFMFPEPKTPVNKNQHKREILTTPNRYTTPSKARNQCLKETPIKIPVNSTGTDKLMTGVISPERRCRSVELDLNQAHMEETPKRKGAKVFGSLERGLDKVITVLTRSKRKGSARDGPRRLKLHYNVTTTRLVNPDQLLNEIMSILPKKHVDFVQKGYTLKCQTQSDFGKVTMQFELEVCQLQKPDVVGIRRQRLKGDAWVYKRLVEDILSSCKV
Turning to `Cc1cc(Nc2cc(N3CCN(C)CC3)nc(Sc3ccc(NC(=O)C4CC4)cc3)n2)n[nH]1` [VX-680, reference compound], the “Histone H3 phosphorylation at Thr3” value is “inhibition of the downstream Histone H3 phosphorylation at Thr3”.

Another experiment concerns the target T1, MELK (Homo sapiens, UniProt Q14680). Put plainly: Electrophoretic mobility (auto-phosphorylation) of MELK in nocodazole-arrested mitotic cells, immunoblotting. The format is cell-based. Conditions: nocodazole-arrested mitotic cells (HeLa, MDA-MB-231), 30 min, increasing concentration. How it is done:
[…] assays were performed with recombinant protein of the indicated mitotic kinase (left) and AMPK family kinases (right) in the presence of THZ-4-63-1. […] Cells were treated with nocodazole (100 ng/ml) for 18 h or not treated (Asyn., asynchronous). Nocodazole-arrested mitotic cells (M) were isolated via shake-off. The attached cells enriched in G2 phase (G2) were harvested. A portion of the mitotic cells were washed off nocodazole and released into G1 phase after 4 hours of incubation (G1). […] In Panel D, mitotic lysates were prepared from the indicated cells, and treated with λ-phosphatase at 30° C. In Panel E, nocodazole-arrested mitotic cells were treated with increasing concentration of THZ-4-63-1 for 30 min. Cell lysates were subjected to immunoblotting.
(§1) Cell lysates were subjected to immunoblotting. […] The fluorescent signals of immunblotting were quantified using Image Studio Lite software (Licor Biosciences, Lincoln, Neb.). The signal of phosphorylated Aurora kinases was normalized to that of loading control (α-tubulin).
(§2) We next proceeded to test if THZ-4-63-1 inhibits MELK activity in vivo. With a lack of established kinase substrates of MELK during mitosis, we used the auto-phosphorylation of MELK as a surrogate to indicate the activity of MELK. […] We then harvested nocodazole-arrested mitotic cells, and treated cells with increasing concentrations of THZ-4-63-1.
`O=C(O)c1ccc(Nc2ncc3c(n2)-c2ccc(Cl)cc2C(c2c(F)cccc2F)=NC3)cc1` [MLN8054, reference compound]: the “Electrophoretic mobility of mitotic MELK” value is “does not alter the electrophoretic mobility of MELK”.

On to `O=C1NC(=NCc2cccs2)S/C1=C\c1ccc2ncccc2c1` [RO-3306, reference compound], for which the “Electrophoretic mobility of mitotic MELK” value is “does not change the electrophoretic mobility of MELK”.

The subject of a further experiment is Aurora kinases. Put plainly: Aurora kinase phosphorylation in mitotic cells, immunoblotting. It is filed as cell-based. Conditions: 30 min. Here is the method: as §1
Cell lysates were prepared for immunoblotting. In Panels B and C, THZ-4-63-1 inhibits H3T3 phosphorylation in HeLa (B) and U2OS (C) cells. Nocodazole arrested mitotic cells were treated with THZ-4-63-1 at the indicated doses for 30 min. […] Cell lysates were subjected to immunblotting. The signal of H3T3 phosphorylation was normalized to that of α-tubulin (right).
as §2
We exposed paclitaxel- or nocodazole-arrested mitotic cells to the individual inhibitor for 30 min in the presence of MG132, and collected lysates for examining signaling involved in chromosome alignment. […] Recent studies unravel a novel role of Aurora B in phosphorylating Haspin^7, a major factor responsible for phosphorylating Histone H3 at Thr3^14. […]
For the molecule `Cc1cc(Nc2cc(N3CCN(C)CC3)nc(Sc3ccc(NC(=O)C4CC4)cc3)n2)n[nH]1` [VX-680, reference compound], the “Phosphorylation of Aurora kinases” value is on record as “efficiently suppressed the auto-phosphorylation of Aurora kinases”.

In another experiment the target is T1, MELK. Nature of the experiment: Z′-LYTE biochemical assay, MELK inhibition. The arrangement: purchased Life Technologies. The conditions noted are these: 25 uM ATP concentration; read-out: MELK IC50 as determined by Z′-LYTE biochemical assay. How it is done:
The invention also provides methods for inhibiting MELK, comprising contacting MELK with a compound of the invention in an amount effective to inhibit MELK. In certain embodiments, the method is conducted in vitro. In certain embodiments, the method is conducted in vivo. Inhibition of MELK can be determined by the Z′-LYTE® biochemical assay from Life Technologies (Life Technologies Z′-LYTE® Screening Protocol and Assay Conditions, June 2012, incorporated herein by reference).
Generally, IC50 against MELK was determined by Z′-LYTE® biochemical assay and are measured in nM at 25 uM ATP concentration.
Regarding `O=c1ccc2cnc3ccc(-c4cc(Cl)c(O)c(Cl)c4)cc3c2n1-c1ccc(N2CCNCC2)c(C(F)(F)F)c1` [Compound 01-045], the IC50 amounted to 7.63 nM.

Take `CC(=O)N1CCN(c2ccc(-n3c(=O)ccc4cnc5ccc(-c6cc(Cl)c(O)c(Cl)c6)cc5c43)cc2C(F)(F)F)CC1` [Compound 01-071]: the IC50 was 294 nM.

On to `CN(C)C[C@H]1CC[C@H](n2c(=O)ccc3cnc4ccc(-c5cc(Cl)c(O)c(Cl)c5)cc4c32)CC1` [Compound 01-087, 9-(3,5-dichloro-4-hydroxyphenyl)-1-(trans-4-((dimethylamino)methyl)cyclohexyl)benzo-[h][1,6]naphthyridin-2(1H)-one], for which the IC50 is 9.6 nM.

With `O=C1NCc2cnc3ccc(-c4cc(Cl)c(O)c(Cl)c4)cc3c2N1c1ccc(N2CCNCC2)c(C(F)(F)F)c1` [Compound 01-088], the IC50 was determined as 5.48 nM.

Take `CN(C)C[C@H]1CC[C@H](N2C(=O)NCc3cnc4ccc(-c5cc(Cl)c(O)c(Cl)c5)cc4c32)CC1` [Compound 01-091, 9-(3,5-dichloro-4-hydroxyphenyl)-1-(trans-4-((dimethylamino)methyl)cyclohexyl)-3,4-dihydropyrimido[5,4-c]quinolin-2(1H)-one]: the IC50 came to 10.5 nM.

For `O=c1ccc2cnc3ccc(-c4cccc(O)c4)cc3c2n1-c1ccc(N2CCNCC2)c(C(F)(F)F)c1` [Compound 01-092], the IC50 is 146 nM.

On to `O=C1NCc2cnc3ccc(-c4cc(Cl)c(O)c(Cl)c4)cc3c2N1c1ccc(N2CCNCC2)cc1` [Compound 01-100], for which the IC50 came to 2.16 nM.

Take `O=c1ccc2cnc3ccc(-c4ccc(CO)cc4)cc3c2n1-c1ccc(N2CCNCC2)c(C(F)(F)F)c1` [Compound 01-101]: the IC50 was found to be 119 nM.

With `CN(C)C[C@H]1CC[C@H](N2C(=O)NCc3cnc4ccc(-c5ccc(NS(C)(=O)=O)cc5)cc4c32)CC1` [Compound 01-131], the IC50 turned out to be 4990 nM.

Take `CN(C)Cc1ccc(N2C(=O)NCc3cnc4ccc(-c5cc(Cl)c(O)c(Cl)c5)cc4c32)cc1` [Compound 01-144]: the IC50 amounted to 9.4 nM.

On to `CN(C)CC1CCC(CN2C(=O)NCc3cnc4ccc(-c5cc(Cl)c(O)c(Cl)c5)cc4c32)CC1` (stereo not drawn) [Compound 02-020], for which the IC50 is 404 nM.

For the molecule `CN(C)C[C@H]1CC[C@H](n2c(=O)[nH]c3cnc4ccc(-c5cc(Cl)c(O)c(Cl)c5)cc4c32)CC1` [Compound 02-022, 8-(3,5-dichloro-4-hydroxyphenyl)-1-(trans-4-((dimethylamino)methyl)cyclohexyl)-1,3-dihydro-2H-imidazo[4,5-c]quinolin-2-one], the IC50 was found to be 1.85 nM.

As for `CN1CCC(CN2C(=O)NCc3cnc4ccc(-c5cc(Cl)c(O)c(Cl)c5)cc4c32)CC1` [Compound 02-029], the IC50 is 386 nM.

In the case of `CN(C)C[C@H]1CC[C@H](n2c(=O)n(C)c3cnc4ccc(-c5cc(Cl)c(O)c(Cl)c5)cc4c32)CC1` [Compound 02-084, 8-(3,5-dichloro-4-hydroxyphenyl)-1-(trans-4-((dimethylamino)methyl)cyclohexyl)-3-methyl-1,3-dihydro-2H-imidazo[4,5-c]quinolin-2-one], the IC50 was 2.16 nM.

Regarding `CN(C)C[C@H]1CC[C@H](N2C(=O)N(C)Cc3cnc4ccc(-c5cc(Cl)c(O)c(Cl)c5)cc4c32)CC1` [Compound 02-095, 9-(3,5-dichloro-4-hydroxyphenyl)-1-(trans-4-((dimethylamino)methyl)cyclohexyl)-3-methyl-3,4-dihydropyrimido[5,4-c]quinolin-2(1H)-one], the 50% inhibitory concentration (IC50) amounted to 27.1 nM.

Turning to `CN(C)C[C@H]1CC[C@H](N2C(=O)N(C)Cc3cnc4ccc(-c5cc(Cl)c(O)c(Cl)c5)nc4c32)CC1` [Compound 02-096], the IC50 came out at 2.8 nM.

The subject of another experiment is MDA-MB-468. Put plainly: Cell growth with paclitaxel combination in MDA-MB-468. It is filed as cell-based, human. The conditions noted are these: 2 nM. How it is done: Mitotic cells were treated with THZ-4-63-1 at indicated concentrations for 4 h. Cells were collected for immunoblotting. Panel B contains time-lapse images of U2OS-(H2B-GFP) cells treated with THZ-4-63-1 (5 μM). […] Panel C contains blots showing proteasome-mediated degradation of Cyclin B1, Aurora B and MELK in THZ-4-63-1-induced mitotic slippage. Mitotic cells were treated as in Panel A with THZ-4-63-1 (5 μM), or MG132 (10 μM), or both for 4 h. Panel D contains a graph showing quantification of cell proliferation in the indicated breast cancer cell lines, which were treated with vehicle control or THZ-4-63-1 for one week (Top) and also contains bright-field images acquired from control cells or cells treated with THZ-4-63-1 (111 nM) (Bottom). […] Cells were treated with indicated drugs, and harvested in ten days for quantification of cell growth. The bold curve depicts the theoretic prediction of an additive action between paclitaxel and THZ-4-63-1.
Because microtubule-targeting chemotherapy is the mainstay of treatment for many types of cancer including basal-like breast cancer, we asked if MELK inhibition could combine with drugs that impair microtubule dynamics. […]
On to `CC(=O)O[C@H]1C(=O)[C@@]2(C)[C@H]([C@H](OC(=O)c3ccccc3)[C@]3(O)C[C@H](OC(=O)[C@H](O)[C@@H](NC(=O)c4ccccc4)c4ccccc4)C(C)=C1C3(C)C)[C@]1(OC(C)=O)CO[C@@H]1C[C@@H]2O` [paclitaxel, reference compound], for which the “Reduction of cell proliferation, paclitaxel alone” value is recorded as “half reduction”.

For the origin of these results see patent US10544138B2, “Tricyclic kinase inhibitors of MELK and methods of use” (Dana-Farber Cancer Institute, Inc., priority 2015, dated 2020).
